Laboratory results: US7892755B2, “Screening method” (Takeda Pharmaceutical Company Limited, priority 2004, dated 2011)

Assays:
GPR35-GFP fusion protein = assay: Internalization of GPR35-GFP fusion protein expressed on CHO cells (Cellomics ArrayScan, MemCyto Above Threshold); assay type: cell-based, human; conditions: CHO cells stably expressing GPR35-GFP; 3 μM, 10 μM and 30 μM
Method: The CHO cell line, in which a protein wherein GFP was fused to the C-terminus of human GPR35 was stably expressed, was established using an expression plasmid for animal cells by publicly known methods. In assaying internalization of the protein, the cells at growth phase were plated at the concentration of 40000 cells/well on a 96-well plate (Packard, View-Plate™-96, Black), and cultured overnight at 37° C. under 5% CO2. First, the cells in the well were washed with assay buffer (HBSS (Gibco/BRL) supplemented with 0.1% bovine serum albumin (BSA)). Then, 100 μl each of the assay buffers containing 3 μM, 10 μM and 30 μM DNQX and NBQX was added to each well, followed by incubation at 37° C. under conditions of 5% CO2. Subsequently, 100 μl/well of a cell fixation solution (4% paraformaldehyde-containing PBS (free of Ca/Mg)) was added to the well, which was allowed to stand at room temperature for 30 minutes. The cell fixation solution was removed. […] The intracellular localization of GPR35-GFP fusion protein was assessed using MemCyto Above Threshold (cell ratio (unit %) over a specific parameter (MemCyto Intensity Ratio) representing the ratio of membrane/cytoplasmic localization of the protein to all cells in the well), which is one of the parameters of the GPCR Signaling Assay Protocol attached to the above system.

human TGR23 = biological target: T1, human TGR23 (Homo sapiens, UniProt Q6W5P4); assay: MAPK phosphorylation in control cells (human TGR23-expressed CHO cells); assay type: cell-based
T1 construct: expressed in transfected cells; host or cells: CHO cells
T1 sequence (Q6W5P4 1-371): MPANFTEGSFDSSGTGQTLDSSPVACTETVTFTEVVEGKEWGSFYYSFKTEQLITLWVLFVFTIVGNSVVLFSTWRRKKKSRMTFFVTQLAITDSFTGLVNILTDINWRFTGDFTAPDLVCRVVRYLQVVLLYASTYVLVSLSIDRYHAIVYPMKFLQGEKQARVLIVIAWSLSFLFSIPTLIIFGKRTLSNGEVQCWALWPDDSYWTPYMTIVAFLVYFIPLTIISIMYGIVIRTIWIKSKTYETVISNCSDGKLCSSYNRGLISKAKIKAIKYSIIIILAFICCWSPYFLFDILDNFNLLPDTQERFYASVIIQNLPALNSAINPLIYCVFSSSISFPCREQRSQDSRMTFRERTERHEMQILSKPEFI

control CHO-K1 cells = assay: Changes in intracellular calcium levels on FLIPR, control CHO-K1 cells with only expression vector pAKKO-111H; assay type: cell-based
Method: (§1) The CHO-K1 cell line (purchased from ATCC) was incubated in HAM F-12 medium (Invitrogen) supplemented with 10% fetal calf serum, unless otherwise indicated. On the day before transfection, the cells were inoculated at 4.5×10^5/10 cm^2 and incubated at 37° C. for 15 hours or more in a CO2 incubator adjusted to 5% CO2 concentration. Using Lipofectamine reagent (Invitrogen), transfection was performed according to modifications of the procedure attached to the reagent. When a 6-well plate was used as the incubator, the transfection was performed as follows. Two tubes each having a 1.5 ml volume were prepared and 100 μl each of Opti-MEM medium (Invitrogen) was dispensed in each tube. Next, 1 μg of the GPR35 expression vector obtained in REFERENCE EXAMPLE 1 and 0.5 μg of Gα15 expression vector (Guthrie cDNA Resource Center) were incorporated into one tube and in another tube, 6 μl of Lipofectamine reagent was charged, which were then mixed together. The mixture was settled for 20 minutes at room temperature. To the solution, 800 μl of Opti-MEM medium was added and the resulting solution mixture for transfection was added to the CHO-K1 cells, which had been previously washed with Opti-MEM medium. The cells were then incubated in a CO2 incubator for 6 hours. After the incubation, the cells were rinsed with PBS (Invitrogen), then detached by 0.05% trypsin-EDTA solution (Invitrogen) and recovered by centrifugal operation. The cells obtained were counted and diluted to 5×10^4 cells per 100 μl of the medium. The dilution was dispensed to a black walled 96-well plate (Costar) at 100 μl per well, followed by incubation overnight in a CO2 incubator. Various test samples were added to the CHO-K1 cells, in which the receptor was transiently expressed, by the transfection procedure described above, whereby changes in intracellular calcium levels were assayed on a FLIPR (Molecular Device).
(§2) To assay the changes in intracellular calcium levels on FLIPR, the following pretreatment was made. First, an assay buffer was prepared to add fluorescence dye Fluo-3AM (DOJIN) to the cells, or to wash the cells immediately before the FLIPR assay. A solution was prepared by adding 20 ml of 1M HEPES (pH 7.4) (DOJIN) to 1000 ml of HBSS (Invitrogen) (hereinafter HBSS/HEPES solution). To the solution, there was added 10 ml of a solution obtained by dissolving 710 mg of Probenecid (Sigma) in 5 ml of 1N NaOH and further adding 5 ml of HBSS/HEPES solution thereto and mixing them. The resulting solution was used as an assay buffer. Next, 50 μg of Fluo-3AM was dissolved in 21 μl of DMSO (DOJIN), and an equal volume of 20% pluronic acid (Molecular Probes) was added to the solution. After mixing them, the mixture was added to 10.6 ml of an assay buffer supplemented with 105 μl of fetal calf serum to give a fluorescence dye solution. After the medium for the transfected CHO-K1 cells was removed, the fluorescence dye solution was immediately dispensed at 100 μl each per well and incubation was carried out in a CO2 incubator for an hour to take up the fluorescence dye into the cells. The incubated cells were washed with the assay buffer described above and set on FLIPR. Test samples to be added to the receptor-expressed CHO-K1 cells were prepared using the assay buffer and simultaneously set on FLIPR.
After the pretreatment described above was made, changes in intracellular calcium levels by the addition of various test samples were assayed on FLIPR. […]

GPR35 = GPR35 (Homo sapiens, UniProt Q9HC97, S294R); assay: Changes in intracellular calcium levels on FLIPR, CHO-K1 cells transiently co-expressing GPR35 and Gα15; assay type: cell-based; design: The resulting fragment (ca. 1 kb) was introduced into vector pAKKO-111; expressed in transfected cells; host or cells: CHO-K1 (ATCC), transient transfection; conditions: Fluo-3AM, 0.3-10 μM shown for DNQX and ellagic acid (FIG. 1, 2)
Method: as §1, §2
After the pretreatment described above was made, changes in intracellular calcium levels by the addition of various test samples were assayed on FLIPR.

Sequence of GPR35 (Q9HC97 whole entry S294R, the tested form may be a part): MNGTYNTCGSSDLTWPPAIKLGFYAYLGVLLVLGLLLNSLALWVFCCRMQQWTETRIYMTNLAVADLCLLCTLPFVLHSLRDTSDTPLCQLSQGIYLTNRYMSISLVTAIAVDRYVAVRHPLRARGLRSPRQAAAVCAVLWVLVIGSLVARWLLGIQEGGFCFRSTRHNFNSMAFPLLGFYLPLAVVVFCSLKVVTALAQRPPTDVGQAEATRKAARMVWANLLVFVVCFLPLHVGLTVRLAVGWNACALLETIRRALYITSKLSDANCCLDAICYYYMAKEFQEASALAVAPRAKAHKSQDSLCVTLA

Row | SMILES | activity of inducing internalization of the GPR35-GFP protein (decreased MemCyto Above Threshold value) (GPR35-GFP fusion protein) | level of phosphorylated MAP-kinase in control cells (human TGR23) | response (increased intracellular calcium levels) in control cells (control CHO-K1 cells) | response (increased intracellular calcium levels) (GPR35)
1 | O=C1N=c2cc([N+](=O)[O-])c([N+](=O)[O-])cc2=NC1=O [DNQX, 6,7-dinitroquinoxaline-2,3-dione] | dose-dependent internalization | any enhanced level of phosphorylation was not observed | not observed | dose-dependently responded (increased intracellular calcium levels)
2 | NS(=O)(=O)c1cccc2c3c(cc([N+](=O)[O-])c12)=NC(=O)C(=O)N=3 [NBQX, 6-nitro-7-sulfamoylbenzo[f]quinoxaline-2,3-dione] | dose-dependent internalization | any enhanced level of phosphorylation was not observed | not observed | dose-dependently responded (increased intracellular calcium levels)
